# According to patent US20260207626A1, “SYNTHETIC TRITERPENOIDS AND COMPOSITIONS THEREOF IN WEIGHT MANAGEMENT, SKELETAL MUSCLE FUNCTION, AND APPETITE SUPPRESSION” (The Board of Regents of the University of Texas System, priority 2022, published 2026):
# “Also recorded” adds a separate entry of the source.
# Tests used:
# NF-κB = NF-κB luciferase reporter assay in L6-GLUT4myc myotubes; type: cell-based, rat; settings: 500 nM CDDO-EA 1 hr then 100 ng/ml LPS 6 hours
# Description: To determine the effects of CDDO-EA on LPS-induced NF-κB transcriptional activity in L6-GLUT4myc myotubes, a luciferase reporter under the control of a promoter containing NF-κB transcription binding sites was used.
# Luciferase assay: L6-GLUT4myc myoblasts were transfected with 2 μg of phosphorylated NF-κB-MetLuc2-Reporter plasmid as described previously. After transfection, cells were plated onto a 24-well dish (1.5×10^5 cells/well) and pre-treated with CDDO-EA for 1 h. Myotubes were then stimulated with LPS 100 ng/ml (E. coli 0111: B4, Sigma Aldrich) for 6 h, and luciferase activity was measured using the Ready-To-Glow™ NF-κB Secreted Luciferase Reporter System as described.
# p38 = assay: Western blot of p38 phosphorylation in L6-GLUT4myc myotubes; type: cell-based, rat; settings: CDDO-EA treated myotubes vs control
# Description: FIG. 16B. The protein p38 has been reported to be involved in insulin-independent glucose metabolism. FIG. 16B represents results from a study performed to illustrate that CDDO-EA activated phosphorylation of p38. Immunoblotting was performed to measure the protein content of phosphorylated p38 and total p38 protein. Protein content of actin is used as a control to confirm protein loading is the same across the lanes of the immunoblot. […] The first row of horizontal bands is the Control group (bands #1, #2, and #3) content of phosphorylated p38 (P-p38) with no CDDO-EA treatment.
# Western blotting and subcellular fractionation: L6-GLUT4myc myoblasts (4×10^4 cells/ml, 2 ml/well) were seeded onto 6-well dishes and differentiated with differentiation medium for 7 days. […] Protein concentrations were determined using the Pierce BCA Protein Assay (Thermo Fisher Scientific), and equal amounts of protein were separated by electrophoresis and subsequently transferred to nitrocellulose membranes. Membranes were analyzed using the following antibodies from Cell Signaling Technology: phosphorylated NF-κB (Ser536) (93 H1, cat #3033,1:1000), phosphorylated IKB-α (Ser32) (14D4, cat #2859,1:1000), IKB-α (44D4, cat #4812, 1:1000), phosphorylated p38 (Thr180/Tyr182) (cat #9211, 1:1000), p38 (cat #9212, 1:1000). […] Bands were quantitated using ImageQuant (GE Healthcare). […]
# [1] = Body composition by NMR at 42 days; type: in vivo, C57BL/6J mice; settings: all groups
# Description: FIG. 24—Body composition at 42 days. Body composition was measured by NMR. C57BL/6J mice were fed a HFD with or without incorporation of CDDO-EA (diet containing 0.04% CDDO-EA) or LFD or HFD pair-fed for 6 weeks (n=5). BW=body weight. Data are represented as mean±SEM (Two-way Repeated Measures ANOVA).
# C57BL/6J mice (6-8 weeks old, male, strain #000664, The Jackson Laboratory) were divided into four (4) groups (i)-(iv)): (i) ad libitum Low fat caloric content (LFD-10% of total calories from fat caloric content, #TD.08806, Envigo), (ii) ad libitum HFD (60% of total calories from fat caloric content, #TD.06414, Envigo), (iii) HFD+CDDO-EA (diet containing 0.04% CDDO-EA), and (iv) HFD pair-fed to food intake of mice fed HFD+CDDO-EA. The study was for 6 weeks (42 days) (performed at Vanderbilt Metabolic Mouse Phenotyping Center (VMMPC)). Mice were singly housed in a Promethion Metabolic Analyzer and were monitored continuously for 7 days to assess feeding and EE.
# MCP-1 = assay: RT-PCR of PA-induced MCP-1 gene expression in L6-GLUT4myc myotubes; type: cell-based, rat; settings: CDDO-EA 500 nM 1 h then PA 400 μM 6 h
# Description: L6-GLUT4myc myotubes were pretreated with CDDO-EA (500 nM, 1 h) and treated PA (400 μM, 6 h). TNF-α and MCP-1 gene expression were measured by RT-PCR. Data are represented as +SEM *P<0.05 vs. control, ^#P<0.05 vs. control. * P<0.05 vs. LPS, $P<0.05 vs. PA. (One-Way ANOVA).
# N171-82Q mice = settings: cited from earlier work
compound,measurement,setting,value
"CCNC(=O)[C@]12CCC(C)(C)C[C@H]1C1C(=O)C=C3[C@@]4(C)C=C(C#N)C(=O)C(C)(C)[C@@H]4CC[C@@]3(C)[C@]1(C)CC2 (stereo partly drawn) [CDDO-EA, (4aS,6aR,6bS,8aR,12aS,14bS)-11-cyano-N-ethyl-2,2,6a,6b,9,9,12a-heptamethyl-10,14-dioxo-1,3,4,5,6,6a,6b, 7,8,8a,9,10,12a, 14,14a, 14b-hexadecahydropicene-4a (2H)-carboxamide]",LPS-induced NF-κB transcriptional (luciferase) activity,NF-κB,prevented the promoter activity of NF-κB; also recorded: significantly inhibited the LPS-induced NF-κB activity; also recorded: blocks NF-κB transcriptional activity
same,"p38 phosphorylation (normalized to total p38, percent over control)",p38,effective for inducing p38 phosphorylation; also recorded: two-fold increase in activation of p38 phosphorylation; also recorded: activates GLUT4 translocation to cell membrane and p38 phosphorylation
same,total p38 protein expression,p38,had no effect on p38 protein expression
same,lean mass,[1],no difference in lean mass between the groups
same,PA-induced MCP-1 gene expression,MCP-1,inhibits PA-induced NF-κB activation and MCP-1 and TNF-α gene expression; also recorded: blocks TNF-α and MCP-1 gene expression
same,"muscle strength and balance, survival",N171-82Q mice; N171-82Q mice,improved muscle strength and balance and increased survival
same,accumulation in the skeletal muscle,N171-82Q mice; Stack et al. (2010),accumulated in the skeletal muscle
same,oxidative stress in skeletal muscle,N171-82Q mice; Stack et al. (2010),oxidative stress in skeletal muscle was reduced
